# Assay results published in PubChem BioAssay AID330 (DTP/NCI, 2004).
# Where “and” joins values, the source holds several entries; their conditions need not be identical. Identical values can stand only once. Toxic doses and inconclusive results are not listed.
# Tested on: P388 leukemia ip, CD2F1 mice, survival T/C
# Assay: NCI In Vivo Anticancer Drug Screen. Data for tumor model P388 Leukemia (intraperitoneal) in CD2F1 (CDF1) mice
# Details: endpoint: median survival time, higher = longer survival
# How it was run: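 Mice carrying the transplanted tumor received test compound or vehicle. Survival was recorded in each group, and the value is the treated-group measurement divided by that of the vehicle-treated control group.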
# [1] = dose: 50.0 mg/kg/injection, schedule: Q01DX005 (ip), vehicle: Klucel (hydroxypropylcellulose) (HPC)
# [2] = dose: 100.0 mg/kg/injection, schedule: Q01DX005 (ip), vehicle: Klucel (hydroxypropylcellulose) (HPC)
# [3] = dose: 200.0 mg/kg/injection, schedule: Q01DX005 (ip), vehicle: Klucel (hydroxypropylcellulose) (HPC)
# [4] = dose: 25.0 mg/kg/injection, schedule: Q01DX005 (ip), vehicle: Klucel (hydroxypropylcellulose) (HPC)
# [5] = dose: 12.5 mg/kg/injection, schedule: Q01DX009 (ip), vehicle: saline with Tween-80
# [6] = dose: 25.0 mg/kg/injection, schedule: Q01DX009 (ip), vehicle: saline with Tween-80
# [7] = dose: 50.0 mg/kg/injection, schedule: Q01DX009 (ip), vehicle: saline with Tween-80
# [8] = dose: 100.0 mg/kg/injection, schedule: Q01DX009 (ip), vehicle: saline with Tween-80
# [9] = dose: 200.0 mg/kg/injection, schedule: Q01DX009 (ip), vehicle: saline with Tween-80
structure (smiles),measurement,setting,value
O=C1C2=C(Nc3cc([N+](=O)[O-])ccc3N2)OC1c1ccccc1O (stereo not drawn),T/C,"dose: 30.0 mg/kg/injection, schedule: Q01DX005 (ip), vehicle: Klucel (hydroxypropylcellulose) (HPC)",106 % of control
same,T/C,"dose: 60.0 mg/kg/injection, schedule: Q01DX005 (ip), vehicle: Klucel (hydroxypropylcellulose) (HPC)",103 % of control and 90 % of control
same,T/C,"dose: 120.0 mg/kg/injection, schedule: Q01DX005 (ip), vehicle: Klucel (hydroxypropylcellulose) (HPC)",101 % of control
same,T/C,"dose: 240.0 mg/kg/injection, schedule: Q01DX005 (ip), vehicle: Klucel (hydroxypropylcellulose) (HPC)",90 % of control
C/C1=C\C(=O)OCC23CCC4(C)OC4C2OC2CC(OC(=O)/C=C/C=C/C(C(C)O)OCC1O)C3(C)C21CO1 (stereo not drawn),T/C,"dose: 1.25 mg/kg/injection, schedule: Q01DX005 (ip), vehicle: saline + alcohol",121 % of control and 123 % of control
same,T/C,"dose: 5.0 mg/kg/injection, schedule: Q01DX005 (ip), vehicle: saline + alcohol",124 % of control
same,T/C,"dose: 10.0 mg/kg/injection, schedule: Q01DX005 (ip), vehicle: saline + alcohol",150 % of control
same,T/C,"dose: 20.0 mg/kg/injection, schedule: Q01DX005 (ip), vehicle: saline + alcohol",159 % of control
S=c1ncc2[nH]cnc2[nH]1,T/C,[1],99 % of control
same,T/C,[2],105 % of control
same,T/C,[3],105 % of control
CN(C)C(=O)Sc1nnc(C(C)(C)C)o1,T/C,[4],100 % of control
same,T/C,[1],106 % of control
same,T/C,[2],106 % of control
O=c1[nH]c(=O)c2nc(-c3cccc([N+](=O)[O-])c3)cnc2[nH]1,T/C,"dose: 100.0 mg/kg/injection, schedule: Q04DX002 (ip), vehicle: saline",101 % of control
same,T/C,"dose: 200.0 mg/kg/injection, schedule: Q04DX002 (ip), vehicle: saline",113 % of control
same,T/C,"dose: 400.0 mg/kg/injection, schedule: Q04DX002 (ip), vehicle: saline",106 % of control
NCC1CC2c3ccccc3C1c1ccccc12 (stereo not drawn),T/C,"dose: 12.5 mg/kg/injection, schedule: Q01DX005 (ip), vehicle: Klucel (hydroxypropylcellulose) (HPC)",103 % of control
same,T/C,[4],97 % of control
same,T/C,[1],99 % of control and 95 % of control
same,T/C,[2],106 % of control
O=C1c2cc(Cl)ccc2-c2c(Cl)cc(Cl)cc21,T/C,[5],87 % of control
same,T/C,[6],100 % of control
same,T/C,[7],100 % of control
CCc1nc2c(cnn2C)c(=O)n1-c1ccccc1Cl,T/C,[1],100 % of control
same,T/C,[2],100 % of control
same,T/C,[3],102 % of control
C=CCCCCCCCCC(=O)N(CCOC)CCOC,T/C,"dose: 25.0 mg/kg/injection, schedule: Q04DX003 (ip), vehicle: saline with Tween-80",100 % of control
same,T/C,"dose: 50.0 mg/kg/injection, schedule: Q04DX003 (ip), vehicle: saline with Tween-80",100 % of control
same,T/C,"dose: 100.0 mg/kg/injection, schedule: Q04DX003 (ip), vehicle: saline with Tween-80",100 % of control
O=C1NS(=O)(=O)Oc2c1ccc1ccccc21,T/C,[5],108 % of control
same,T/C,[6],99 % of control
same,T/C,[7],96 % of control
same,T/C,[8],96 % of control
same,T/C,[9],110 % of control
CC(C)NCCCNC(=O)C1COc2ccccc2O1 (stereo not drawn),T/C,"dose: 50.0 mg/kg/injection, schedule: Q01DX005 (ip), vehicle: saline",94 % of control
same,T/C,"dose: 100.0 mg/kg/injection, schedule: Q01DX005 (ip), vehicle: saline",88 % of control
same,T/C,"dose: 200.0 mg/kg/injection, schedule: Q01DX005 (ip), vehicle: saline",90 % of control
COc1ccc(-c2cc(C(=O)O)c3cc4ccccc4cc3n2)cc1Br,T/C,[7],94 % of control
same,T/C,[8],93 % of control and 97 % of control
same,T/C,[9],105 % of control and 87 % of control
same,T/C,"dose: 400.0 mg/kg/injection, schedule: Q01DX009 (ip), vehicle: saline with Tween-80",121 % of control and 89 % of control
same,T/C,"dose: 600.0 mg/kg/injection, schedule: Q01DX009 (ip), vehicle: saline with Tween-80",101 % of control
C=CCn1cc2c3c(cccc31)C1CC(C)CN(C)C1C2 (stereo not drawn),T/C,"dose: 50.0 mg/kg/injection, schedule: Q01DX005 (ip), vehicle: saline with Tween-80",99 % of control
same,T/C,"dose: 100.0 mg/kg/injection, schedule: Q01DX005 (ip), vehicle: saline with Tween-80",111 % of control
N#Cc1c2ccccc2cc[n+]1Cc1ccc2c(c1)OCO2,T/C,"dose: 3.12 mg/kg/injection, schedule: Q04DX002 (ip), vehicle: Klucel (hydroxypropylcellulose) (HPC)",105 % of control
same,T/C,"dose: 6.25 mg/kg/injection, schedule: Q04DX002 (ip), vehicle: Klucel (hydroxypropylcellulose) (HPC)",104 % of control
same,T/C,"dose: 12.5 mg/kg/injection, schedule: Q04DX002 (ip), vehicle: Klucel (hydroxypropylcellulose) (HPC)",100 % of control and 106 % of control
